Laboratory results published in US11891634B2, “PDE5A destabilizing domains” (The Board of Trustees of the Leland Stanford Junior …, priority 2017, dated 2024).

Assays:
[1] = tested on: NIH3T3 cells expressing AcGFP-PDE5A fusions; experiment: FACS analysis of C-terminal PDE5A mutants (AcGFP-PDE5A fusions), Sildenafil vs vehicle; type: cell-based, mouse; conditions: Table 2, 24 hours; for Mean Fluorescence intensity: NIH3T3; for Stabilization ratio: fold change in GFP intensity, Sildenafil 10 μM vs vehicle alone
Protocol: (§1) The NIH3T3 cell line was cultured in DMEM supplemented with 10% heat-inactivated donor bovine serum (Invitrogen), 2 mM glutamine, 100 U/ml penicillin and 100 μg/ml streptomycin.
(§2) The ΦNX ecotropic packaging cell line was transfected using standard Lipofectamine 2000 protocols. Viral supernatants were harvested 48 hours, post transfection, filtered and concentrated 10-fold using Amicon Ultra centrifugal filter device with a 100kDa cutoff. NIH 3T3 cells were incubated with concentrated retroviral supernatants supplemented with 4 μg/ml polybrene for 4 hours at 37° C. Cells were washed once with PBS and cultured in growth media for 24-36 hours to allow for viral integration.
(§3) The transduced NIH3T3 cells were subjected to analysis using fluorescence-activated cell sorting (FACS) to screen the libraries of PDE5A mutants. 24 hours prior to analysis, transduced NIH3T3 cells were plated at 1×10^5 cells per well of a 12-well plate. Cells were removed from the plate using PBS and 2 mM EDTA, washed once with PBS, and resuspended in 200 μL, PBS. FACS analysis was performed on instruments at the Stanford Shared FACS Facility with 10,000 events represented.
(§4) To identify destabilizing domains that are responsive to the PDE5A ligand, Sildenafil, a cell-based screening assay was employed in which the fluorescence of green fluorescent protein derived from Aequorea coerulescens (AcGFP) served as an indicator of PDE5A stability. A library based on the PDE5A catalytic domain sequences was generated using error prone PCR and then cloned in-frame in front of AcGFP. A Moloney murine leukemia retroviral expression was used to stably integrate this library of PDE5A-AcGFP fusions into NIH-3T3 fibroblasts, and the transduced cells were subjected to three rounds of sorting using flow cytometry. In the first round, cells were treated with 10 μM of PDE5A ligand, Sildenafil for 16-24 before analysis. Fluorescent cells were collected and further cultured in the absence of ligand for 60 hours.
(§5) A library of AcGFP-PDE5A fusions i.e., C-terminal PDE5A mutants was screened using the cell-based screening assay described previously to identify C-terminal destabilizing domains. […] Identified candidates were subjected to further characterization by FACS. Cells were split into two treatment groups and incubated with either Sildenafil (10 μM) or vehicle alone for 24 hours. Cells that were mock transduced or transduced with the wild-type PDE5A construct were also included in the analysis. The stabilization ratio was calculated as the fold change in GFP intensity of the AcGFP-PDE5A construct in Sildenafil treated sample compared to vehicle alone treated sample. The results are presented in Table 2 where the C terminal PDE5A mutants are denoted as PDE5AC.
Residue D764 was identified as a mutational hotspot from sequence analysis. PDE5AC (#41) was engineered with either D764N or D764G mutation via site-directed mutagenesis. PDE5AC (#41) +D764N comprises the amino acid sequence of SEQ ID NO. 53 (encoded by SEQ ID NO. 54) and PDE5AC (#41) +D764G comprises the amino acid sequence of SEQ ID NO. 55 (encoded by SEQ ID NO. 56). AcGFP-PDE5A variants were evaluated for Sildenafil dependent stabilization via FACS as described previously. Results from FACS analysis are presented in Table 4 where the C terminal PDE5A mutants are denoted as PDE5AC. The stabilization ratio was calculated as the fold change in GFP intensity of the AcGFP-PDE5A construct in Sildenafil treated sample compared to vehicle alone treated sample.
Extended versions of human PDE5A that included residues in addition to catalytic domain (residues 535-860 of SEQ ID NO. 1) with Q589R polymorphism (SEQ ID NO. 11) were evaluated for use as C-terminal destabilizing domains. Three extended PDE5A sequences were tested that consisted of residues 535-875 of SEQ ID NO. 1 with Q589R polymorphism (SEQ ID NO. 13); residues 466-875 of SEQ ID NO. 1 with Q589R polymorphism (SEQ ID NO. 15); or residues 420-875 of SEQ ID NO. […]

[2] = tested on: PDE5A-AcGFP fusions; experiment: FACS analysis of N-terminal PDE5A mutants (PDE5A-AcGFP fusions), Sildenafil vs vehicle; type: cell-based, mouse; conditions: 24 hours; for Stabilization ratio: Sildenafil 20 μM vs vehicle alone; for Mean Fluorescence Intensity (MFI) Sildenafil (20 μM) / Mean Fluorescence Intensity (MFI) Vehicle control: NIH3T3; for Mean Fluorescence Intensity (MFI) Vehicle control: vehicle alone
Protocol: as §1, §2, §3, §4
as §5, with “PDE5A-AcGFP” for “AcGFP-PDE5A”, “N-terminal” for “C-terminal”, “mutants,” for “mutants”, “(20” for “(10”, “The results are presented in Table 6 where the N terminal PDE5A mutants are denoted as PDE5AN. The” for “The”, “sample.” for “sample. The results are presented in Table 2 where the C terminal PDE5A mutants are denoted as PDE5AC.”

[3] = target: T1, HCT 116 cells transduced with the PDE5A DD derived GFP constructs (Homo sapiens, UniProt O76074, K633E/K795E/K852E/Q589R/T712S); experiment: Response to Tadalafil, GFP expression by FACS in HCT116; type: cell-based; conditions: 48 hrs, HCT116
T1 construct: Mutations were created in PDE5A (535-860) catalytic domain using site directed mutagenesis; expressed in transfected cells; host or cells: HCT116 (lentiviral transduction, pELNS vector, sorted on mCherry)
Method in brief: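 HCT116 cells stably transduced (mCherry-sorted) with lentiviral PDE5A DD–AcGFP constructs, exposed to DMSO or Tadalafil 0.01–100 μM for 48 hrs. GFP mean fluorescence by FACS; stabilization ratio = ligand vs no-ligand signal, basal expression = no-ligand signal vs parental autofluorescence.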

[4] = Sildenafil (10 μM) −, vehicle alone

Substance | Mean Fluorescence intensity ([1]; Sildenafil (10 μM) +) | Mean Fluorescence intensity [1, 4] | Stabilization ratio [1] | Stabilization ratio [2] | Mean Fluorescence Intensity (MFI) Sildenafil (20 μM) [2] | Mean Fluorescence Intensity (MFI) Vehicle control [2] | Tadalafil concentrations at which stabilization ratios greater than 1 were obtained [3]
PDE5AC (#13): AcGFP fused to C-terminal DD 535-860 of PDE5A (Q589R, Y676D, L738H), SEQ ID NO. 24 | 6284 | 1076 | 5.8 |  |  |  | 
PDE5AC (#25): AcGFP fused to C-terminal DD 535-860 of PDE5A (Q541R, F559L, Q589R, H678R, I824T), SEQ ID NO. 35 | 2340 | 1452 | 1.6 |  |  |  | 
PDE5AC (#28): AcGFP fused to C-terminal DD 535-860 of PDE5A (Q589R, K591E, N609H, D764V), SEQ ID NO. 25 | 6055 | 1382 | 4.4 |  |  |  | 
PDE5AC (#43): AcGFP fused to C-terminal DD 535-860 of PDE5A (Q589R, N609H, Y676N, A762S), SEQ ID NO. 29 | 5518 | 1017 | 5.4 |  |  |  | 
PDE5AC (#69): AcGFP fused to C-terminal DD 535-860 of PDE5A (Q589R, N636S, D687A, D764N, S815C), SEQ ID NO. 30 | 6365 | 1126 | 5.6 |  |  |  | 
PDE5AN (#3): N-terminal DD 535-860 of PDE5A (Q589R, K633E, T712S, K852E, K795E), SEQ ID NO. 66, fused to AcGFP |  |  |  | 3.97 | 3335 | 839 | greater than 0.41 μM
PDE5AN (#53): N-terminal DD 535-860 of PDE5A (E536G, Q589R, C839S), SEQ ID NO. 67, fused to AcGFP |  |  |  | 2.62 | 4440 | 1697 | 
